# Test results reported in patent EP0526936A2, “Cholesterol-lowering agents” (MERCK & CO. INC., priority 1991, dated 1993).
# Key:
# squalene synthase [1] = molecular target: T1, squalene synthase (Saccharomyces cerevisiae, UniProt P29704); test: Squalene synthase assay, yeast enzyme; assay type: biochemical, S. cerevisiae W303-1A; settings: yeast enzyme preparation; 12 min preincubation, 12 min reaction at 30 °C; read-out: Squalene Synthase Inhibition IC50 Yeast Enzyme (converted)
# T1 construct: The pellet fractions were suspended at 10-20 mg/ml protein in breakage buffer containing 25% glycerol; endogenous in cells; host or cells: S. cerevisiae W303-1A
# T1 sequence (P29704 1-444): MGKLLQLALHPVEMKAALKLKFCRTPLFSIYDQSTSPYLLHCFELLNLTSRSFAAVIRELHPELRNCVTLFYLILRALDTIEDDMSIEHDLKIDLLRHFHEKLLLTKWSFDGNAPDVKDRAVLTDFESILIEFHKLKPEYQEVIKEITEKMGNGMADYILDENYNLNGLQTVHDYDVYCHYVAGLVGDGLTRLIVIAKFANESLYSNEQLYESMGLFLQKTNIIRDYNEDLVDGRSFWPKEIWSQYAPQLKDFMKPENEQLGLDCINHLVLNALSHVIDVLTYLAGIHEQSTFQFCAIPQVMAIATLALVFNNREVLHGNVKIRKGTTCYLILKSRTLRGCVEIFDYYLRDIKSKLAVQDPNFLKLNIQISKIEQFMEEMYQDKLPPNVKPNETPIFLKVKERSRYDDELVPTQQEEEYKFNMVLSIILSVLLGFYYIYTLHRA
# Protocol: (§1) The intrinsic squalene synthase inhibitory activity of representative compounds of this invention was measured by the standard in vitro protocol described below:
# S. cerevisiae W303-1A (MATa ade2-1 canl-100 his3-11,15 leu2-3,112 trp1-1 ura3-1) was grown at 30 ° C for 24 hours in YPD medium ([…], 2% glucose) supplemented with 20 µg/mL adenine. The cells were washed and resuspended in a minimal volume of breakage buffer (100 mM KP04, pH 7.4, 3 mM DTT, 1 mM PMSF). The cells were added to the small chamber of the Bead-Beater Cell Disrupter (Biospec Products, Bartlesville, OK) containing 100 g of 0.5 mm glass beads. Buffer was added to fill the chamber. The sealed chamber was packed in ice and processed for 4 cycles of 30 sec with 2 min. cooling between cycles. Cell breakage was determined to be >90% by phase-contrast microscopy. The glass beads were removed by Whatman filter paper and the filtrate collected into an ice- immersed filter flask. The extract was centrifuged at 1500 x g for 10 min at 4°C. The pellet (P1) containing unbroken cells and cell walls was discarded. The supernatant (S1) was centrifuged at 30000 x g for 30 min at 4°C. The pellet (P2) contained about two-thirds of the total squalene synthase activity. The supernatant (S2) can be centrifuged at 100,000 x g for 60 min at 4°C to pellet the remaining activity (P3). The pellet fractions were suspended at 10-20 mg/ml protein in breakage buffer containing 25% glycerol. The activity was stable for several months at -80 ° C.
# (§2) Reactions were performed in 1.2 mL polypropylene tube strips of eight. […] The reaction product was extracted with 0.4 mL heptane containing 0.4 µL carrier squalene 0.2 mL of the heptane extract was counted by liquid scintillation. […]
# (§3) Percent inhibition is calculated by the formula: [formula]
# lC50 values were determined by plotting the log of the concentration of the test compound versus the percentage inhibition. […]
# squalene synthase [2] = molecular target: T2, squalene synthase (Homo sapiens, UniProt P37268); test: Squalene synthase assay, HepG2 cell enzyme; assay type: biochemical; settings: HepG2 enzyme preparation; 12 min preincubation, 12 min reaction at 30 °C; read-out: Squalene Synthase Inhibition IC50 HepG2 Enzyme (converted)
# T2 construct: The HepG2 enzyme preparation was centrifuged at 34,000 rpm to separate the cytosol and microsomal enzymes; host or cells: HepG2
# T2 sequence (P37268 1-417): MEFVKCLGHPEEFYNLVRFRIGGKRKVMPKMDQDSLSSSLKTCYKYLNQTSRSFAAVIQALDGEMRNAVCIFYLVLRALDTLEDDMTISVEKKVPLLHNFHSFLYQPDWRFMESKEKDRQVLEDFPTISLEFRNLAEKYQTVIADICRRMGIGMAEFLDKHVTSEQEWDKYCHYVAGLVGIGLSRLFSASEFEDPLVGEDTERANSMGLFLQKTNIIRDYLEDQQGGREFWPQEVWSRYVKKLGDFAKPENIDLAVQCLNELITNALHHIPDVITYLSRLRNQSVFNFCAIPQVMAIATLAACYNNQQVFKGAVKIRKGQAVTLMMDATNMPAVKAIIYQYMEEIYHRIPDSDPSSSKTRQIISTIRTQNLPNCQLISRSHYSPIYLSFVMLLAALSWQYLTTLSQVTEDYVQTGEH
# Protocol: as §1
# 1. SOURCE: HEPG2 CELL LINE (Liver, hepatoblastoma, Human) ATCC No. HB 8065
# Culture Medium: Minimum essential medium (MEM) with non-essential amino acids, sodium pyruvate, and 10% fetal bovine serum. The medium was changed twice weekly. […] The growth medium was prepared as listed below.
# SUBCULTURE PROCEDURE: The medium was removed and washed with PBS (Phosphate-Buffered Saline 15.6 mM, pH 7.0). Fresh trypsin (0.25%)-EDTA (0.02%) with Hank's Balanced Salt solution was added and the flask was allowed to stand for a minute before the trypsin solution was removed. The flask was incubated at 370 C until cells detached. Fresh medium was added and the cells were dispersed and dispensed into new flasks. Subcultivation ratio: 1:6.
# PREPARATION OF DELIPIDATED SERUM: Fetal calf serum (100 ml) and CAB-O-Sil (2 grams) were stirred overnight at 4°C and centrifuged at 16,000 rpm for 5 hrs. The supernantant was filtered and the serum was stored at 4 C.
# 48 hrs. prior to harvest, cells grown in MEM with 10% Fetal Calf serum were switched to MEM with 10% delipidated serum.
# HARVEST: The medium was removed and the cells were washed with PBS. Fresh trypsin (0.25%)-EDTA (0.02%) with Hanks' Balanced Salt solution was added and allowed to stand and removed. The flask was incubated at 37 C until the cells detached. MEM medium (6 mL/flask) was added to suspend cells and combined into a centrifuge tube. […] Cells were counted ([…] yield from 18 flasks (75 cm^2)), and resuspended in 10 mL of 50mM HEPES (N-[2-Hydroxyethyl]piperazine-N'-[2-ethane-sulfonic acid]) containing 5mM MgCI2, 2mM MnCI2, 10mM DTT, pH 7.5 (enzyme suspension buffer). […]
# as §2
# Percent inhibition is calculated by the formula: [formula] […]
# squalene synthase [3] = molecular target: T3, squalene synthase (Rattus norvegicus, UniProt Q02769); test: Squalene synthase assay, rat liver microsomes; assay type: biochemical, rats; settings: [4-14C]farnesyl-pyrophosphate, 20 minutes at 30 °C
# T3 construct: from tissue; host or cells: liver microsomes of male Charles River CD rats fed 0.1% lovastatin
# T3 sequence (Q02769 1-416): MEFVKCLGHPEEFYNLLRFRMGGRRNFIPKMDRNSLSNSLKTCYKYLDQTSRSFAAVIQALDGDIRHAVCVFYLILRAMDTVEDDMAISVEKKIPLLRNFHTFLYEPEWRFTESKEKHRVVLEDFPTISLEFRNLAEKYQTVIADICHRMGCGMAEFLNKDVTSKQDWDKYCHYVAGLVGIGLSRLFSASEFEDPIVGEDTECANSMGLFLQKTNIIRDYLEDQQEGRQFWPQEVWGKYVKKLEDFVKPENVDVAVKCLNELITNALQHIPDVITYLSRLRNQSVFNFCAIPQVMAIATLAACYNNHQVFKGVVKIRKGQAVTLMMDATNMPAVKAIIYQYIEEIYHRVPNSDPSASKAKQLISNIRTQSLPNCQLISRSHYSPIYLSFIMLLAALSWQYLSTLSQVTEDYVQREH
# Protocol: Alternatively, the intrinsic squalene synthase inhibitory activity of the compounds formed in the fermentation of the microorganisms of the present invention may be measured by the standard in vitro protocol described below:
# Male, CHARLES RIVER@ CD rats (120 to 150 g) were fed a diet containing 0.1% lovastatin for 4 days. The livers from these rats were homogenized in 5 volumes (mL/g) of ice cold 50 mM HEPES (4-(2-hydroxyethyl)-1-piperazine-ethanesulfonic acid), 5 mM EDTA(ethylenediaminetetraacetic acid) pH 7.5 with a Potter-Elvehjem type tissue grinder. The homogenate was centrifuged twice at 20,000 x g for 15 min. at 4°C, discarding the pellet each time. The supernatant was then centrifuged at 100,000 x g for 1 hr at 4°C. The resulting microsomal pellet was resuspended in a volume of the above homogenizing buffer equal to one-fifth the volume of the original homogenate. This microsomal preparation has a protein concentration of about 7 mg/mL. The microsomal suspensions were stored in aliquots at -70 °C. Squalene synthase activity in these aliquots is stable for a least several months. […]
# This assay mix was degassed under a vacuum and flushed with N2. […] Ten mL of scintillation fluid was added to the heptane solution and radioactivity was determined by liquid scintillation counting.
# as §3
# Farnesyl Transferase = Farnesyl Transferase (Homo sapiens, UniProt P49356); test: Farnesyl-transferase assay (inhibition of Ras farnesylation in vitro); assay type: biochemical; settings: ras-CVLS 3 μM, 60 min at room temperature
# Protocol: FARNESYL-TRANSFERASE ASSAY
# 100 µL of 0.5 M DTT was added to 900 µL of 1.1 M HEPES, pH 7.5 and 55.5 mM MgCl2 to yield a 10X buffer consisting of 1.0 M HEPES, pH 7.5, 50 mM MgCl2 and 50 mM DTT.
# The reaction mix was prepared as below:
# A Blank reaction mix was also prepared with the negative control ras-protein, and the Total/Sample reaction mix received the ras-CVLS. The same volumes were used to prepare the Blank reaction mix as those in Table 1.
# The farnesyl trasferase solution was prepared as shown below. The farnesyl transferase mix was prepared right before use.
# • i. The assay volume was 100 µL, the volume of sample to be tested was 5 µL and the time of incubation is 60 min at room temperature. • ii. The TECAN 8000/505, an automatic pipetting station, added 50 µL of water plus 5 µL of sample to the assay tubes. • iii. The ras-CVLS reaction mix (20 µL) was manually added to totals and unknowns. The negative control ras-protein reaction mix (20 µL) was manually added to the blank tubes. • iv. The farnesyl transferase mix (25 µL) was manually added to all tubes to initiate the reaction and the assay tubes were kept at room temperature for 60 min. • v. The assay was stopped placing the assay tubes in an ice bath for 5 minutes. • vi. 1.0 mL of 1.0 M HCI in 100% ethanol was then added to each tube. The assay tubes (uncapped) were incubated at 37 ° C for 60 min. to facilitate the hydrolysis of the FPP. • vii. Assay tubes were harvested through a TOMTEC 96-well harvestor (6 x 16 with extended tips, or SKATRON cell harvestor) onto LKB double thickness filter mats. • viii. The cell harvestor was adjusted so that each well was washed with 10 mL of 100% ethanol. • ix. Filter mats were baked in microwave oven for 6-8 min. to dry the filtermats. • x. The filter mats were placed in counting bags, 30 mL of LKB ,8-scint cocktail was added and the filter mats were counted for 120 sec. in the LKB β-plate counter.
# Percent inhibition was calculated according to the following equation: [formula] […]
SMILES,IC50 (squalene synthase [1]) [µM],IC50 (squalene synthase [2]) [µM],IC50 (squalene synthase [3]) [µM],IC50 (Farnesyl Transferase) [µM]
CCCCCCCC(=O)CCCCCC/C=C/C(C(=O)NC(Cc1ccc(O)cc1)C(=O)O)C(O)(CC(=O)O)C(=O)O (stereo not shown) [Compound A],12.7,70.3,15,8
CCCCCCCC(=O)CCCCCC/C=C/C(C(=O)NC(Cc1ccccc1)C(=O)O)C(O)(CC(=O)O)C(=O)O (stereo not shown) [Compound C],1.74,33.5,,4.5
CCCCCCCC(=O)CCCCCC/C=C/C(C(=O)NC(Cc1c[nH]c2ccccc12)C(=O)O)C(O)(CC(=O)O)C(=O)O (stereo not shown) [Compound D],0.358,0.472,,3.3
